Legend:
Format in all cases: cell-based, human
[1] = system: LNCaP cells; assay: WST-1 cell proliferation assay, LNCaP; conditions: for IC50: Homo sapiens, LNCaP, 72 h, WST-1, three days of exposure, mean ± SD, n = 3; for IC50 (Silibinin)/IC50(Derivative) LNCaP: fold potency relative to silibinin
Description: (§1) The in vitro antiproliferative activities of six 7-O-substituted and 26 3-O-substituted silybin derivatives were evaluated using the WST-1 cell proliferation assay, according to the procedure as described in the Experimental Section in both androgen-sensitive (LNCaP) and androgen-insensitive (PC-3 and DU145) human prostate cancer cell lines. Silibinin and docetaxel were used as a positive control for comparison in the parallel experiments and the IC50 values calculated from the dose-response curves are summarized in Table 1. […] A three-carbon linker in 11 and 29, as well as a five-carbon linker in 31, 37 and 40, are beneficial to the potency.
(§2) All cell lines were initially purchased from American Type Culture Collection (ATCC^TM) (Manassas, VA, USA). The PC-3 and LNCaP prostate cancer cell lines were routinely cultured in RPIM-1640 medium supplemented with 10% FBS and 1% penicillin/streptomycin. The DU145 prostate cancer cells were routinely cultured in Eagle’s Minimum Essential Medium (EMEM) supplemented with 10% FBS and 1% penicillin/streptomycin. Cultures were maintained in a high humidity environment supplemented with 5% carbon dioxide at a temperature of 37 °C.
(§3) PC-3, DU145, or LNCaP cells were plated in 96-well plates at a density of 3,200 per well in 200 µL of culture medium. The cells were then separately treated with silibinin, or synthesized silibinin derivatives, at five different doses for three days, while equal treatment volumes of DMSO (0.25%) were used as the vehicle control. The cells were cultured in a CO2 incubator at 37 °C for three days. A total of 10 µL of the premixed WST-1 cell proliferation reagent (Clontech) was added to each well. After mixing gently for one min on an orbital shaker, the cells were incubated for an additional 3 h at 37 °C. To ensure a homogeneous distribution of color, it is important to mix gently on an orbital shaker for one min. The absorbance of each well was measured using a microplate reader (Synergy HT, BioTek, Winooski, VT, USA) at a wavelength of 430 nm. […] For calculating the IC50 values, a linear proliferative inhibition was made based on at least five dosages for each compound.

[2] = system: PC-3 cells; assay: WST-1 cell proliferation assay, PC-3; conditions: for IC50: Homo sapiens, PC-3, 72 h, WST-1, three days of exposure, mean ± SD, n = 3; for IC50 (Silibinin)/IC50(Derivative) PC-3: fold potency relative to silibinin
Description: as §1, §2, §3

[3] = system: DU145 cells; assay: WST-1 cell proliferation assay, DU145; conditions: for IC50: Homo sapiens, DU-145, 72 h, WST-1, three days of exposure, mean ± SD, n = 3; for IC50 (Silibinin)/IC50(Derivative) DU145: fold potency relative to silibinin
Description: as §1, §2, §3

| SMILES | IC50 [1] [µM] | IC50 (Silibinin)/IC50(Derivative) LNCaP [1] | IC50 [2] [µM] | IC50 (Silibinin)/IC50(Derivative) PC-3 [2] | IC50 [3] [µM] | IC50 (Silibinin)/IC50(Derivative) DU145 [3] |
| --- | --- | --- | --- | --- | --- | --- |
| CCN(CC)CCCOc1cc(OC)c2c(=O)c(OC)c(-c3ccc4c(c3)OC(c3ccc(OC)c(OC)c3)C(CO)O4)oc2c1 (stereo not drawn) [Compound 10] | 7.49 ± 0.16 | 6 | 9.92 ± 0.43 | 7 | 8.62 ± 0.32 | 11 |
| COc1ccc(C2Oc3cc(-c4oc5cc(OCCCN6CCCC6)cc(OC)c5c(=O)c4OC)ccc3OC2CO)cc1OC (stereo not drawn) [Compound 12] | 11 ± 0.99 | 4 | 25.1 ± 1 | 3 | 19.6 ± 0.47 | 5 |
| COc1ccc(C2Oc3cc(-c4oc5cc(OCCCN6CCOCC6)cc(OC)c5c(=O)c4OC)ccc3OC2CO)cc1OC (stereo not drawn) [Compound 13] | 12.7 ± 6.28 | 3 | 26.5 ± 1 | 3 | 45.1 ± 11.5 | 2 |
| COc1ccc(C2Oc3cc(-c4oc5cc(OCCCN6CCN(C)CC6)cc(OC)c5c(=O)c4OC)ccc3OC2CO)cc1OC (stereo not drawn) [Compound 14] | 16.4 ± 3.47 | 3 | 25.7 ± 3.39 | 3 | 19.4 ± 0.88 | 5 |
| COc1cc(OC)c2c(=O)c(OCCCCCBr)c(-c3ccc4c(c3)OC(c3ccc(OC)c(OC)c3)C(CO)O4)oc2c1 (stereo not drawn) [Compound 19] | 5.19 ± 2.08 | 8 | 5.76 ± 1.36 | 13 | 8.13 ± 0.42 | 11 |
| COc1cc(OC)c2c(=O)c(OCCCN(C)C)c(-c3ccc4c(c3)OC(c3ccc(OC)c(OC)c3)C(CO)O4)oc2c1 (stereo not drawn) [Compound 20, 3-O-(N,N-Dimethylamino)propyl-5,7,20-O-trimethyl-2,3-dehydrosilybin] | 20.7 ± 5.34 | 2 | 9.09 ± 1.48 | 8 | 32.7 ± 5.32 | 3 |
| COc1cc(OC)c2c(=O)c(OCCCCN(C)C)c(-c3ccc4c(c3)OC(c3ccc(OC)c(OC)c3)C(CO)O4)oc2c1 (stereo not drawn) [Compound 21] | 5.13 ± 0.89 | 9 | 5.15 ± 2.13 | 14 | 9.97 ± 3.34 | 9 |
| COc1cc(OC)c2c(=O)c(OCCCCCN(C)C)c(-c3ccc4c(c3)OC(c3ccc(OC)c(OC)c3)C(CO)O4)oc2c1 (stereo not drawn) [Compound 22] | 5.07 ± 0.52 | 9 | 3.47 ± 2.23 | 21 | 6.73 ± 0.45 | 14 |
| CCN(CC)CCCOc1c(-c2ccc3c(c2)OC(c2ccc(OC)c(OC)c2)C(CO)O3)oc2cc(OC)cc(OC)c2c1=O (stereo not drawn) [Compound 23] | 3.09 ± 0.15 | 14 | 5.16 ± 0.94 | 14 | 9.21 ± 0.37 | 10 |
| CCN(CC)CCCCOc1c(-c2ccc3c(c2)OC(c2ccc(OC)c(OC)c2)C(CO)O3)oc2cc(OC)cc(OC)c2c1=O (stereo not drawn) [Compound 24] | 5.19 ± 2.08 | 13 | 5.76 ± 1.36 | 11 | 8.18 ± 0.42 | 8 |
| CCN(CC)CCCCCOc1c(-c2ccc3c(c2)OC(c2ccc(OC)c(OC)c2)C(CO)O3)oc2cc(OC)cc(OC)c2c1=O (stereo not drawn) [Compound 25] | 6.33 ± 0.34 | 7 | 6.41 ± 0.4 | 11 | 6.64 ± 0.54 | 14 |
| CCCN(CCC)CCCOc1c(-c2ccc3c(c2)OC(c2ccc(OC)c(OC)c2)C(CO)O3)oc2cc(OC)cc(OC)c2c1=O (stereo not drawn) [Compound 26] | 3.89 ± 0.54 | 11 | 2.03 ± 0.69 | 36 | 8.39 ± 1.38 | 11 |
| CCCN(CCC)CCCCOc1c(-c2ccc3c(c2)OC(c2ccc(OC)c(OC)c2)C(CO)O3)oc2cc(OC)cc(OC)c2c1=O (stereo not drawn) [Compound 27] | 4.02 ± 1.55 | 11 | 3.77 ± 0.41 | 19 | 5.39 ± 0.53 | 17 |
| CCCN(CCC)CCCCCOc1c(-c2ccc3c(c2)OC(c2ccc(OC)c(OC)c2)C(CO)O3)oc2cc(OC)cc(OC)c2c1=O (stereo not drawn) [Compound 28] | 2.7 ± 0.47 | 16 | 3.3 ± 0.86 | 22 | 5.78 ± 1.36 | 16 |
| CCCCN(CCCC)CCCCOc1c(-c2ccc3c(c2)OC(c2ccc(OC)c(OC)c2)C(CO)O3)oc2cc(OC)cc(OC)c2c1=O (stereo not drawn) [Compound 30] | 3.84 ± 0.51 | 11 | 3.77 ± 0.41 | 19 | 3.07 ± 0.51 | 30 |
| COc1cc(OC)c2c(=O)c(OCCCN3CCCC3)c(-c3ccc4c(c3)OC(c3ccc(OC)c(OC)c3)C(CO)O4)oc2c1 (stereo not drawn) [Compound 32] | 5.89 ± 0.3 | 7 | 2.86 ± 0.79 | 25 | 14.1 ± 2.79 | 7 |
| COc1cc(OC)c2c(=O)c(OCCCCN3CCCC3)c(-c3ccc4c(c3)OC(c3ccc(OC)c(OC)c3)C(CO)O4)oc2c1 (stereo not drawn) [Compound 33] | 8.06 ± 1.44 | 5 | 7.49 ± 1.98 | 10 | 19.8 ± 2.38 | 5 |
| COc1cc(OC)c2c(=O)c(OCCCCCN3CCCC3)c(-c3ccc4c(c3)OC(c3ccc(OC)c(OC)c3)C(CO)O4)oc2c1 (stereo not drawn) [Compound 34] | 3.92 ± 1.67 | 11 | 2.95 ± 0.76 | 25 | 5.9 ± 1.3 | 16 |
| COc1cc(OC)c2c(=O)c(OCCCN3CCCCC3)c(-c3ccc4c(c3)OC(c3ccc(OC)c(OC)c3)C(CO)O4)oc2c1 (stereo not drawn) [Compound 35] | 2.28 ± 0.42 | 19 | 2.37 ± 0.7 | 31 | 7.26 ± 1.12 | 13 |
| COc1cc(OC)c2c(=O)c(OCCCCN3CCCCC3)c(-c3ccc4c(c3)OC(c3ccc(OC)c(OC)c3)C(CO)O4)oc2c1 (stereo not drawn) [Compound 36] | 27.3 ± 5.42 | 2 | 24.1 ± 10.6 | 3 | 67 ± 13.7 | 1 |

Source: paper PMC6320956, “O-Aminoalkyl-O-Trimethyl-2,3-Dehydrosilybins: Synthesis and In Vitro Effects Towards Prostate Cancer Cells” (Molecules, 2018)
